This note sets out measurements from ChEMBL document CHEMBL1150926, “A new meroditerpenoid dimer from an undescribed Philippine marine sponge of the genus Strongylophora” (J Nat Prod, 1998).

In one data set the test system is Staphylococcus aureus. Briefly: Antibacterial activity against Staphylococcus aureus ATCC 25923 at 100 ug/disk after 24 hrs by agar plate diffusion method. Format: functional, organism-based.
The subject of another data set is Salmonella typhi. Nature of the data set: Antibacterial activity against Salmonella typhii at 100 ug/disk after 24 hrs by agar plate diffusion method. Format: functional.
Data set [1] concerns Cladosporium cucumerinum. Nature of the data set: Antifungal activity against Cladosporium cucumerinum at 0.10 umol after 2 days. Format: functional.
The test system of the next data set is Micrococcus luteus. Briefly: Antibacterial activity against Micrococcus luteus at 100 ug/disk after 24 hrs by agar plate diffusion method. Format: functional.
Data set [2] relates to Cladosporium cucumerinum. Briefly: Antifungal activity against Cladosporium cucumerinum at 0.80 umol after 2 days. Format: functional.
The subject of a further data set is Escherichia coli. Nature of the data set: Antibacterial activity against Escherichia coli ATCC 25922 at 100 ug/disk after 24 hrs by agar plate diffusion method. Format: functional, organism-based.
Data set [3] is described as follows: Toxicity against Artemia salina assessed as mortality after 48 hrs. Format: organism-based. The following applies: in vivo.
For a further data set, the system named is Bacillus subtilis. Briefly: Antibacterial activity against Bacillus subtilis 168 at 100 ug/disk after 24 hrs by agar plate diffusion method. Format: functional, organism-based. The following applies: subsp. subtilis str. 168.
The subject of data set [4] is Spodoptera littoralis. Briefly: Insecticidal activity against Spodoptera littoralis larvae assessed as inhibition of larval growth at 530 ppm treated in artificial diet after 6 days. Format: functional. Set-up: scale not given: the % may be the effect or the level left.
Data set [5] concerns Spodoptera littoralis. Nature of the data set: Insecticidal activity against Spodoptera littoralis larvae assessed as inhibition of larval growth treated in artificial diet after 6 days. Format: functional, organism-based.

Values after ≈ are worked out from the molar mass of the structure shown. Active and inactive are the calls of the source. No cut-off for these calls is given here.

For orientation: LC50 means the concentration lethal to half of the exposed cells or organisms. For `C[C@@]12CC[C@@H]3[C@]4(CCC[C@@]3(C)C(=O)OC4)[C@H]1CC[C@]1(C)Oc3ccc(O)cc3C[C@@H]21` [strongylophorine-2], the result in the data set on Staphylococcus aureus, in the data set on Salmonella typhi (Salmonella enterica subsp. enterica serovar Typhi), in the data set on Cladosporium cucumerinum [1], in the data set on Cladosporium cucumerinum [2], in the data set with Escherichia coli and in the data set with Bacillus subtilis was inactive. Further, in the data set with Micrococcus luteus (read-out: IZ), the zone of inhibition at 100 µg/disc was 7 mm. The LC50 at 48 h in [3] is 534 µg/mL (≈ 1300 µM).
Take `CC(=O)[C@@]1(C)CCC[C@]2(C)[C@H]3CC[C@]4(C)Oc5ccc(O)cc5C[C@H]4[C@]3(C)CC[C@H]21` [strongylophorine-4]: the result in the data set with Cladosporium cucumerinum [1] and in the data set with Cladosporium cucumerinum [2] was inactive. Also, the LC50 at 48 h in data set [3] came out at 143 µg/mL (≈ 349 µM).
`C[C@]12CCC[C@](C)(C(=O)O)[C@@H]1CC[C@]1(C)[C@@H]2CC[C@]2(C)Oc3ccc(O)cc3C[C@@H]12` [Strongylophorin-3]: the result in the data set with Staphylococcus aureus, with Micrococcus luteus, with Escherichia coli and with Bacillus subtilis was inactive. The Activity in the data set on Spodoptera littoralis [4] was found to be 90%. Moreover, in the data set with Salmonella typhi (Salmonella enterica, read-out: IZ), the zone of inhibition at 100 µg/disc was determined as 9 mm. The “inhibition zone (IZ)” value with Cladosporium cucumerinum [1] was determined as 10 mm; in the data set on Cladosporium cucumerinum [2], 15 mm. Moreover, in the data set on Spodoptera littoralis [5], the EC50 is recorded as 69 ppm. Also, the LC50 at 48 h in data set [3] stood at 59.2 µg/mL (≈ 143 µM).
Regarding `C[C@]12CC[C@H]3[C@@](C)(CCC[C@@]3(C)C(=O)O)[C@@H]1CC[C@@]1(C)Oc3c(O)ccc(Oc4ccc5c(c4)C[C@H]4[C@]6(C)CC[C@@H]7[C@](C)(CCC[C@]7(C)C(=O)O)[C@H]6CC[C@]4(C)O5)c3C[C@H]21` [DISTRONGYLOPHORINE], the outcome in the data set with Cladosporium cucumerinum [1] and with Cladosporium cucumerinum [2] was inactive. Moreover, the LC50 at 48 h in data set [3] was determined as 10.5 µg/mL (≈ 12.8 µM).
